PubChem BioAssay (NCI)
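Protocol summary: plate cells (96-well), add compound at 5 concentrations, incubate 48 h, interpolate endpoints linearly. Abbreviation: GI50, concentration required for 50% inhibition of growth. TGI denotes the concentration required for complete inhibition of growth.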

Tests used:
Test in all cases: NCI-60 cell line screen, 48 h
[1] = test system: NCI/ADR-RES ovarian
[2] = test system: MDA-MB-231 breast
[3] = test system: IGROV1 ovarian
[4] = test system: SK-MEL-5 melanoma
[5] = test system: HCC-2998 colon
[6] = test system: SNB-19 CNS
[7] = test system: M14 melanoma
[8] = test system: SF-268 CNS
[9] = test system: SK-OV-3 ovarian
[10] = test system: K-562 leukemia
[11] = test system: MALME-3M melanoma
[12] = test system: OVCAR-5 ovarian
[13] = test system: NCI-H522 lung
[14] = test system: SF-539 CNS
[15] = test system: BT-549 breast
[16] = test system: MOLT-4 leukemia
[17] = test system: SK-MEL-2 melanoma
[18] = test system: PC-3 prostate
[19] = test system: HL-60(TB) leukemia
[20] = test system: OVCAR-4 ovarian
[21] = test system: NCI-H226 lung
[22] = test system: EKVX NSCLC
[23] = test system: 786-0 renal
[24] = test system: MCF7 breast
[25] = test system: LOX IMVI melanoma
[26] = test system: UACC-257 melanoma
[27] = test system: SW-620 colon
[28] = test system: T-47D breast
[29] = test system: SN12C renal
[30] = test system: CAKI-1 renal
[31] = test system: NCI-H460 lung
[32] = test system: UACC-62 melanoma
[33] = test system: SF-295 CNS
[34] = test system: OVCAR-8 ovarian
[35] = test system: HT29 colon
[36] = test system: KM12 colon
[37] = test system: HCT-116 colon
[38] = test system: DU-145 prostate
[39] = test system: A549 NSCLC
[40] = test system: RXF 393 renal
[41] = test system: ACHN renal
[42] = test system: RPMI-8226 leukemia
[43] = test system: HOP-92 NSCLC
[44] = test system: OVCAR-3 ovarian
[45] = test system: HOP-62 NSCLC
[46] = test system: HCT-15 colon
[47] = test system: SK-MEL-28 melanoma
[48] = test system: SR leukemia
[49] = test system: UO-31 renal
[50] = test system: COLO 205 colon
[51] = test system: NCI-H23 lung
[52] = test system: U251 CNS
[53] = test system: TK-10 renal
[54] = test system: CCRF-CEM leukemia
[55] = test system: SNB-75 CNS
[56] = test system: HS 578T breast

## C[N+](C)([O-])Cc1cccc(NC(=O)c2ccc(C(=O)Nc3cccc(C[N+](C)(C)[O-])c3)cc2)c1
[1]
  TGI: > 100 µM
[2]
  TGI: > 100 µM
[3]
  TGI: > 100 µM
[4]
  TGI: > 100 µM
[5]
  TGI: > 100 µM
[6]
  TGI: > 100 µM
[7]
  TGI: > 100 µM
[8]
  TGI: > 100 µM
[9]
  TGI: > 100 µM
[10]
  TGI: > 100 µM
[11]
  TGI: > 100 µM
[12]
  TGI: > 100 µM
[13]
  TGI: > 100 µM
[14]
  TGI: > 100 µM
[15]
  TGI: > 100 µM
[16]
  TGI: > 100 µM
[17]
  TGI: > 100 µM
[18]
  TGI: > 100 µM
[19]
  TGI: > 100 µM
[20]
  TGI: > 100 µM
[21]
  TGI: > 100 µM
[22]
  TGI: > 100 µM
[23]
  TGI: > 100 µM
[24]
  TGI: > 100 µM
[25]
  TGI: > 100 µM
[26]
  TGI: > 100 µM
[27]
  TGI: > 100 µM
[28]
  TGI: > 100 µM
[29]
  TGI: > 100 µM
[30]
  TGI: > 100 µM
[31]
  TGI: > 100 µM
[32]
  TGI: > 100 µM
[33]
  TGI: > 100 µM
[34]
  TGI: > 100 µM
[35]
  TGI: > 100 µM
[36]
  TGI: > 100 µM
[37]
  TGI: > 100 µM
[38]
  TGI: > 100 µM
[39]
  TGI: > 100 µM
[40]
  TGI: > 100 µM
[41]
  TGI: > 100 µM
[42]
  TGI: > 100 µM
[43]
  TGI: > 100 µM
[44]
  TGI: > 100 µM
[45]
  TGI: > 100 µM
[46]
  TGI: > 100 µM
[47]
  TGI: > 100 µM
[48]
  TGI: > 100 µM
[49]
  TGI: > 100 µM
[50]
  TGI: > 100 µM
[51]
  TGI: > 100 µM
[52]
  TGI: > 100 µM
[53]
  TGI: > 100 µM
[54]
  TGI: > 100 µM

## Cc1cc2c(C#N)n3c(c2cc1C)C(=O)C(c1ccccc1)Oc1ccccc1-3 (stereo not given)
[55]
  GI50: 2.25 µM
  TGI: 9.58 µM
[5]
  GI50: > 100 µM
  TGI: > 100 µM
[6]
  GI50: 2.97 µM
  TGI: > 100 µM
[8]
  GI50: 3.73 µM
  TGI: > 100 µM
[9]
  GI50: 5.55 µM
  TGI: > 100 µM
[23]
  GI50: 3.91 µM
  TGI: > 100 µM
[56]
  GI50: 4.29 µM
  TGI: > 100 µM
[33]
  GI50: 3.83 µM
  TGI: > 100 µM
[40]
  GI50: 2.71 µM
  TGI: 39.6 µM
[43]
  GI50: 1.62 µM
  TGI: 5.77 µM
[45]
  GI50: 3.71 µM
  TGI: > 100 µM
[53]
  GI50: 3.33 µM
  TGI: > 100 µM

## CC(C)OC(=S)[S-].[Au+].c1ccc([PH+](c2ccccc2)c2ccccc2)cc1
[7]
  GI50: 0.986 µM
  TGI: 2.32 µM
[13]
  GI50: 0.176 µM
  TGI: 0.409 µM
[14]
  GI50: 1.24 µM
  TGI: 2.49 µM
[19]
  GI50: 0.264 µM
  TGI: 1.36 µM
[24]
  GI50: 0.467 µM
  TGI: 2.66 µM
[25]
  GI50: 0.478 µM
  TGI: 2.07 µM
[40]
  GI50: 0.387 µM
  TGI: 1.48 µM
[42]
  GI50: 0.747 µM
  TGI: 4.01 µM
[43]
  GI50: 1.07 µM
  TGI: 2.25 µM
[44]
  GI50: 0.316 µM
  TGI: 1.05 µM
[52]
  GI50: 0.419 µM
  TGI: 1.56 µM
